Measured values published in ChEMBL document CHEMBL5223162, “Discovery of Pyrazolopyridine Derivatives as HPK1 Inhibitors” (ACS Med Chem Lett, 2023).
pIC50, pKi: −log10 of the molar value.

Columns and labels:
[1] = AUC in cynomolgus monkey at 3 mg/kg, po and measured upto 24 hrs by LC-MS/MS analysis; assay type: ADME, organism-based, Macaca fascicularis; set-up: dose 3 mg/kg, time < 24 hrs, route po; settings: in vivo
[2] = Volume of distribution at steady state in cynomolgus monkey at 1 mg/kg, iv and measured upto 24 hrs by LC-MS/MS analysis; assay type: ADME, organism-based, Macaca fascicularis; settings: in vivo
[3] = Half life in cynomolgus monkey at 1 mg/kg, iv and measured upto 24 hrs by LC-MS/MS analysis; assay type: ADME, organism-based, Macaca fascicularis; settings: in vivo
[4] = Clearance in cynomolgus monkey at 1 mg/kg, iv and measured upto 24 hrs by LC-MS/MS analysis; assay type: ADME, organism-based, Macaca fascicularis; settings: in vivo
[5] = AUC in Sprague-Dawley rat at 3 mg/kg, po and measured upto 24 hrs by LC-MS/MS analysis; assay type: ADME, organism-based; set-up: dose 3 mg/kg, time < 24 hrs, route po; settings: in vivo
[6] = Clearance in Sprague-Dawley rat at 1.5 mg/kg, iv and measured upto 24 hrs by LC-MS/MS analysis; assay type: ADME, organism-based; settings: in vivo
[7] = Fraction unbound in human plasma by LC-MS/MS analysis; assay type: ADME, cell-free
[8] = Permeability across apical to basolateral side in human Caco2 cells at 50 uM and measured after 120 mins by LC-MS analysis; assay type: ADME, cell-based; settings: Caco-2, read-out: permeability
[9] = target: T1, Mitogen-activated protein kinase kinase kinase kinase 1 (Homo sapiens, UniProt Q92918); assay: Binding affinity to recombinant human HPK1 (1 to 346 residues) expressed sf9 cells incubated for 1 hr by LanthaScreen assay
[10] = target: T1, Mitogen-activated protein kinase kinase kinase kinase 1; assay: Inhibition of human HPK1 in human Jurkat cells assessed as reduction in SLP76 phosphorylation incubated for 1 hr by HTRF assay; assay type: cell-based
[11] = Intrinsic clearance in human liver microsomes at 1 uM and measured upto 30 mins in presence of NADPH by LC-MS analysis; assay type: ADME, Microsome; settings: read-out: CLH (converted)
[12] = Oral bioavailability in cynomolgus monkey at 3 mg/kg and measured upto 24 hrs by LC-MS/MS analysis; assay type: ADME, organism-based, Macaca fascicularis; settings: in vivo
[13] = target: T1, Mitogen-activated protein kinase kinase kinase kinase 1; assay: Inhibition of human HPK1 in human whole blood assessed as reduction in SLP76 phosphorylation incubated for 1 hr by HTRF assay; assay type: tissue-based
Cytochrome P450 1A2 = target: T2, Cytochrome P450 1A2 (Homo sapiens, UniProt P05177); assay: Inhibition of CYP1A2 in human liver microsomes using 7- ethoxyresorufin as substrate by LC-MS analysis; assay type: ADME, Microsome
T2 sequence (P05177 whole entry): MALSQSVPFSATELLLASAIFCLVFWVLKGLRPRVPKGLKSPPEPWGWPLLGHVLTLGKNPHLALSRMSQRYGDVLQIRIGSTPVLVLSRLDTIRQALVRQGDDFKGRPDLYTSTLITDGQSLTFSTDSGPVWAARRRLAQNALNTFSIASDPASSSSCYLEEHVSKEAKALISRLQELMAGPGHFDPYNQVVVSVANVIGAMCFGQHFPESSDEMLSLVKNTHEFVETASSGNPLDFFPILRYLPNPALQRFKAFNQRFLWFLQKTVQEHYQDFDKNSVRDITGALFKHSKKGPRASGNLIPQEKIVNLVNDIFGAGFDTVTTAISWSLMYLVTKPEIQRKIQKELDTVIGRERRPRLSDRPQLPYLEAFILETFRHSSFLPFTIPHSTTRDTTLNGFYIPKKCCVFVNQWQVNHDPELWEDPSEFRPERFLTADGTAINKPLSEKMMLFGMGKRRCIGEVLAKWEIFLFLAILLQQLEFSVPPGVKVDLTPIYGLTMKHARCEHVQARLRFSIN

Cytochrome P450 2B6 = target: T3, Cytochrome P450 2B6 (Homo sapiens, UniProt P20813); assay: Inhibition of CYP2B6 in human liver microsomes using bupropion as substrate by LC-MS analysis; assay type: ADME, Microsome
T3 sequence (P20813 whole entry): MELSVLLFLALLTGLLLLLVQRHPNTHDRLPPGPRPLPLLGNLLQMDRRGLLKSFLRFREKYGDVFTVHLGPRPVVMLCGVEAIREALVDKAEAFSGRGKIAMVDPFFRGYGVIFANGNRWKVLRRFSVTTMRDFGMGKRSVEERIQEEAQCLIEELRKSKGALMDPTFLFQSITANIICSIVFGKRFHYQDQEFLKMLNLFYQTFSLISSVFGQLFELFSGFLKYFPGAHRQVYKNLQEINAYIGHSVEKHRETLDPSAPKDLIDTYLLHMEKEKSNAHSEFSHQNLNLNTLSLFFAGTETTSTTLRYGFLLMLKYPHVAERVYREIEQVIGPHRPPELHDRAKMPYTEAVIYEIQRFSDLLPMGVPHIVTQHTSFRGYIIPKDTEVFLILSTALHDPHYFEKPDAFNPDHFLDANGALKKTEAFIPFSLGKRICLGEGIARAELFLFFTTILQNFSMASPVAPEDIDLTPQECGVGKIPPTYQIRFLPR

Cytochrome P450 2C8 = target: T4, Cytochrome P450 2C8 (Homo sapiens, UniProt P10632); assay: Inhibition of CYP2C8 in human liver microsomes using amodiaquine as substrate by LC-MS analysis; assay type: ADME, Microsome
T4 sequence (P10632 whole entry): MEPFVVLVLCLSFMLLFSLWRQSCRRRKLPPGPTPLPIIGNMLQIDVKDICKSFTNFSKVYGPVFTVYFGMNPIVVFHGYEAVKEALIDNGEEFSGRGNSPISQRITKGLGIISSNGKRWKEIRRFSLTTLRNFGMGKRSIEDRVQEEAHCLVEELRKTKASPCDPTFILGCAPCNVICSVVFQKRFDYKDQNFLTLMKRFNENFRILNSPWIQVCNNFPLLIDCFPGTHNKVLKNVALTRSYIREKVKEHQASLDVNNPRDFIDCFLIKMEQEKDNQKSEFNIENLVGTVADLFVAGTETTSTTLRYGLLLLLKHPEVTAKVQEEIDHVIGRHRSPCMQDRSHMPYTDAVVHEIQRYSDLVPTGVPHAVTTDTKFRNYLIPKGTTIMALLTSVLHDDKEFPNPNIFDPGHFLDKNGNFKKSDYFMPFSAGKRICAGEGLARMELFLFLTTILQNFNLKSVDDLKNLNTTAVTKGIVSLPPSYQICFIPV

Cytochrome P450 2C9 = Cytochrome P450 2C9 (Homo sapiens, UniProt P11712); assay: Inhibition of CYP2C9 in human liver microsomes using diclofenac as substrate by LC-MS analysis; assay type: ADME, Microsome
Cytochrome P450 2D6 = Cytochrome P450 2D6 (Homo sapiens, UniProt P10635); assay: Inhibition of CYP2D6 in human liver microsomes using bufuralol as substrate by LC-MS analysis; assay type: ADME, Microsome
Cytochrome P450 3A4 = Cytochrome P450 3A4 (Homo sapiens, UniProt P08684); assay: Inhibition of CYP3A4 in human liver microsomes using testosterone as substrate by LC-MS analysis; assay type: ADME, Microsome
hERG (KCNH2) = hERG (KCNH2) (Homo sapiens, UniProt Q12809); assay: Inhibition of human ERG at 5 uM by patch-clamp assay; assay type: toxicity
Cytochrome P450 2C19 = Cytochrome P450 2C19 (Homo sapiens, UniProt P33261); assay: Inhibition of CYP2C19 in human liver microsomes using S mephenytoin as substrate by LC-MS analysis; assay type: ADME, Microsome
Sequence of Cytochrome P450 2C19 (P33261 whole entry): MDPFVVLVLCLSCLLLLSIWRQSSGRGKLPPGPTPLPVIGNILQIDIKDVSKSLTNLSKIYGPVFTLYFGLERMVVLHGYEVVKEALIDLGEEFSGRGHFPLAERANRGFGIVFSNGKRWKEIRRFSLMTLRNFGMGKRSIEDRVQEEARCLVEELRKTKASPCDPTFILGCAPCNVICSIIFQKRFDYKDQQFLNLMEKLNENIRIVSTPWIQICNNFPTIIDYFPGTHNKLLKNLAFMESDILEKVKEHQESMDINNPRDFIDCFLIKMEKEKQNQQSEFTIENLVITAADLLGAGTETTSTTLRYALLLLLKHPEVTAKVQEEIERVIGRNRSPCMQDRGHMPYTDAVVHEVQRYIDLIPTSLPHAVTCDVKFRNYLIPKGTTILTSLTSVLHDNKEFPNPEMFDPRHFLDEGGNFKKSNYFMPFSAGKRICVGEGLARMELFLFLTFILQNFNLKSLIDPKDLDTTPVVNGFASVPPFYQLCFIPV

T1 sequence (Q92918 whole entry, the tested form may be a part): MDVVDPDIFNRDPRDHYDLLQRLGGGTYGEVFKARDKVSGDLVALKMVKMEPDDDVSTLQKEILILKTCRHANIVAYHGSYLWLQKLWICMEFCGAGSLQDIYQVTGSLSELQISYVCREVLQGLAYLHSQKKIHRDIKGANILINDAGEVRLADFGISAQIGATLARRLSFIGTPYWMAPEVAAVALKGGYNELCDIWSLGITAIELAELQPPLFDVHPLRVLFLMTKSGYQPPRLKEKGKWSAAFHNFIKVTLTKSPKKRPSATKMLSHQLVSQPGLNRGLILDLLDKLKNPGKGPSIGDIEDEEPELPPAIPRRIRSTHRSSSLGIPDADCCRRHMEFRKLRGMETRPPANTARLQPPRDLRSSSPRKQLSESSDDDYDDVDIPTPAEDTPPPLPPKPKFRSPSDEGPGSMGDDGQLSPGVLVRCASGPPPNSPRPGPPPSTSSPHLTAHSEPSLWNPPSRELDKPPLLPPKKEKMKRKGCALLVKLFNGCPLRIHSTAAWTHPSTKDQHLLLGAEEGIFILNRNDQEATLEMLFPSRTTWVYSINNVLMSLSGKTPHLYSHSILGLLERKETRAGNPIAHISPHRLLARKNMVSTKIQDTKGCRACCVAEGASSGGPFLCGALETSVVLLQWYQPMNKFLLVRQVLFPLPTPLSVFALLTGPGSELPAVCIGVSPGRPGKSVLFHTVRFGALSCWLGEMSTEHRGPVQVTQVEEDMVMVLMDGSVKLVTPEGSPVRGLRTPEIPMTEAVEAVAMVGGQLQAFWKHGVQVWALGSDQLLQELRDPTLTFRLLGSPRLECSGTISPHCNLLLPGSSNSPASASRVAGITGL
Sequence of hERG (KCNH2) (Q12809 whole entry): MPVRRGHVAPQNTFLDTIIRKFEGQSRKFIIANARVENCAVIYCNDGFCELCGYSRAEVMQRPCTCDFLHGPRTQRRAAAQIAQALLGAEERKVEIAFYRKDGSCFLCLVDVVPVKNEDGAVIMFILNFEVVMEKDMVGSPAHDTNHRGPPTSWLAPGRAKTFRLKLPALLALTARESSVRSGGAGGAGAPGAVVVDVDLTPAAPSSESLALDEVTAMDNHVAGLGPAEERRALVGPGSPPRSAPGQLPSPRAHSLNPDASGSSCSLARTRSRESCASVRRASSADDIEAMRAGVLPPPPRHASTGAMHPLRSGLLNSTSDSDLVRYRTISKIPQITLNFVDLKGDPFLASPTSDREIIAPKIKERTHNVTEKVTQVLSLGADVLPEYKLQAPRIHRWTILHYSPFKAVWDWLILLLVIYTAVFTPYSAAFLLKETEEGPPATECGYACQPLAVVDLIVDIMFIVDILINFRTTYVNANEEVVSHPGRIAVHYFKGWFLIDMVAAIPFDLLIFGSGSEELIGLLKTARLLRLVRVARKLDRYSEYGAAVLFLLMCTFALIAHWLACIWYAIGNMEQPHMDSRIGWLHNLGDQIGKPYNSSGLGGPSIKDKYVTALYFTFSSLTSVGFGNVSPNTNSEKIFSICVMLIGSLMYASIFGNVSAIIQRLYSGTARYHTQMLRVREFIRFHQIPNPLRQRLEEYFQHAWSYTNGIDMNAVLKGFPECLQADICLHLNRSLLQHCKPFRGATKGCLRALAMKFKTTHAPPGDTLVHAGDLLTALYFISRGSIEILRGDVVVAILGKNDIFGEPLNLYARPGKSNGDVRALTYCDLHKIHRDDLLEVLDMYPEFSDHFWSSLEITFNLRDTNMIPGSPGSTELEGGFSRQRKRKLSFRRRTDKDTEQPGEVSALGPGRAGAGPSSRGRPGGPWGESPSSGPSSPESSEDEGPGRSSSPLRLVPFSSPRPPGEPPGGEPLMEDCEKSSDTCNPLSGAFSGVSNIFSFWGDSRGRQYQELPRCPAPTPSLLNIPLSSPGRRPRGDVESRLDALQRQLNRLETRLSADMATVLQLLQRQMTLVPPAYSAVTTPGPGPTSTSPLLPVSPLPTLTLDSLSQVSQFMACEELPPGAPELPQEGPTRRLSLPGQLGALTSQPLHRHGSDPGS
Sequence of Cytochrome P450 2C9 (P11712 whole entry): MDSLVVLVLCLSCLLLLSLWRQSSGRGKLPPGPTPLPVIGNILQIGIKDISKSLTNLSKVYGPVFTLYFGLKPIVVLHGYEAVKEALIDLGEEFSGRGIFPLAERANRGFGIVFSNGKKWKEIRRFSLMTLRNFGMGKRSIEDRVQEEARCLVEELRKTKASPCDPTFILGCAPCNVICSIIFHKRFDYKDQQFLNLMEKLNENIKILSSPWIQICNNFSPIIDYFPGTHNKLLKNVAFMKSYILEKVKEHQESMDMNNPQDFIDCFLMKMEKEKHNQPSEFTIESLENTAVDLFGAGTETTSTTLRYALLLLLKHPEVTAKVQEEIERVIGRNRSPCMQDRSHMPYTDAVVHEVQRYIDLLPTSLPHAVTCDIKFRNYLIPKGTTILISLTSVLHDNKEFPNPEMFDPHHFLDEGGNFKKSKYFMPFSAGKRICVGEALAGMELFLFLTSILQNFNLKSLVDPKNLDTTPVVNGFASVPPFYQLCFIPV
Sequence of Cytochrome P450 2D6 (P10635 whole entry): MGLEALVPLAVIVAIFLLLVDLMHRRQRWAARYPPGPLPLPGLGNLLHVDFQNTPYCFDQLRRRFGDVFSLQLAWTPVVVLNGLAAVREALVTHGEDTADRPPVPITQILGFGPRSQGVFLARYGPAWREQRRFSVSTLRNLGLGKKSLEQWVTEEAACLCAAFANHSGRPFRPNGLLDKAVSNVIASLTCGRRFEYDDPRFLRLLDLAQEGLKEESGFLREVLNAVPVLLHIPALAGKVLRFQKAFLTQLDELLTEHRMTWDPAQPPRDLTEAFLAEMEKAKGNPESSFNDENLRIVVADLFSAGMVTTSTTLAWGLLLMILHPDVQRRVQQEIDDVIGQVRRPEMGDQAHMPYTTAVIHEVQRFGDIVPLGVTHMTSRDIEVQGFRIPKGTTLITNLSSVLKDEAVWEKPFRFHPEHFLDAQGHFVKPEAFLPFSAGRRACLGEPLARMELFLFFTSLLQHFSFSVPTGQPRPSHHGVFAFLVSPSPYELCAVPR
Sequence of Cytochrome P450 3A4 (P08684 whole entry): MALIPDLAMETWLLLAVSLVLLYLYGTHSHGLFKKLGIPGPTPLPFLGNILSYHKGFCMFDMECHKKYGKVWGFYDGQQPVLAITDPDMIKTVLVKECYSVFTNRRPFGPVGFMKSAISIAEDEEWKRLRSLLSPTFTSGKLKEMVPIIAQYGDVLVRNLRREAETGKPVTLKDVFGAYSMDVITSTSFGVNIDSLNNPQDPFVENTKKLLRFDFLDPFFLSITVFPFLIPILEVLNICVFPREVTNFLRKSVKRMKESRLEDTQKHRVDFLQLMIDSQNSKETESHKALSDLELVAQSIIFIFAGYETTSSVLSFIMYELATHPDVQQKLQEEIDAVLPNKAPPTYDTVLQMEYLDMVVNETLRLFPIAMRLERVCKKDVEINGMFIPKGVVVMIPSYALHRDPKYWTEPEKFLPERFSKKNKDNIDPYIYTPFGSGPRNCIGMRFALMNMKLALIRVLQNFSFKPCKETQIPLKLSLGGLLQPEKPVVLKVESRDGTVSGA

SMILES: Cc1cc(CN2CCC2)cc(F)c1-c1cc2c(-c3cnn(C)c3)n[nH]c2cn1
- AUC at 24 h [1]: 9.77 µM·h
- Vdss [2]: 4 L/kg
- half-life [3]: 6 h
- clearance [4]: 15.8 mL/min/kg
- AUC at 24 h [5]: 1.1 µM·h
- clearance [6]: 102 mL/min/kg
- fraction unbound [7]: 0.43
- Papp A→B at 2 h, 50 µM [8]: 3.1 ×10⁻⁶ cm/s
- pKi [9]: 8.39
- pIC50 [10]: 6.84
- CLint scaled at 1 µM [11]: 8.33 mL/min/kg
- bioavailability [12]: 96%
- pIC50 [13]: 6.52
- pIC50 (Cytochrome P450 1A2): < 4.82
- pIC50 (Cytochrome P450 2B6): < 4.82
- pIC50 (Cytochrome P450 2C8): < 4.82
- pIC50 (Cytochrome P450 2C9): < 4.82
- pIC50 (Cytochrome P450 2D6): < 4.82
- pIC50 (Cytochrome P450 3A4): < 4.82
- inhibition at 5 µM (hERG (KCNH2)): 5%
- pIC50 (Cytochrome P450 2C19): < 4.82
